Read-outs that look alike come from different tables or passages of the source.

Holding throughout (assay type): cell-based
In test [1] the test system is HT-29 human colon adenocarcinoma. Kind of test: Cell growth inhibition, HT-29 cells.
For test [2], the system named is BxPC3, carcinoma of pancreas. Kind of test: Cell growth inhibition, BxPC3 cells. To be noted: Homo sapiens, read-out: IC50, BxPC3, pancreas.
Test [3] deals with JB6c141 rat skin cells. The test is described as follows: Colony Formation Assay (soft agar assay for colony formation). To be noted: 100 micromolar, 14 days, with or without epidermal growth factor. An excerpt:
The Colony Formation Assay, also known as “soft agar assay for colony formation” as described by David Bowtell (accessed on the Internet as recently as on Dec. 29, 2003 at http://grimwade.biochem.unimelb.edu.au/bowtell/cellbiol/sect71.htm) was also used to asses the neoplastic cell growth inhibitory effect of these compounds and using the JB6c141 rat skin cells. Briefly, and following the plating of cells in the presence or absence of epidermal growth factor and in each case, in the presence or absence of the test compound, they were incubated at […] in a humidified incubator for 14 days, when plates were stained 0.005% Crystal Violet for >1 hour, colonies were counted using a dissecting microscope.

[4] abbreviates: HT-29, 24 hr, read-out: IC50, HT-29, colon.
Setting [5] is: HT-29, 24 h, read-out: IC50, HT-29, colon.

Turning to `CC(=O)Oc1ccccc1C(=O)Oc1ccc(CO)cc1` [2-(acetyloxy)benzoic acid 4-(hydroxymethyl)phenyl ester], the IC50 was greater than 500 µM in test [1] (setting [4]) and greater than 500 µM in test [2] (BXPC-3, 24 hr).

Take `CC(=O)Oc1ccccc1C(=O)O` [Aspirin, reference compound]: the IC50 was greater than 1000 µM in test [1] (setting [4]) and greater than 1000 µM in test [2] (BXPC-3, 24 hr).

Take `O=C(/C=C/c1ccc(O)c(O)c1)Oc1ccc(CO)cc1` [Caffeic acid 4-(hydroxymethyl)phenyl ester]: the IC50 in test [1] (setting [4]) is greater than 500 µM.

Turning to `O=C(O)/C=C/c1ccc(O)c(O)c1` [Caffeic acid, reference compound], the IC50 was greater than 1000 µM in test [1] (setting [4]) and greater than 1000 µM in test [2] (BXPC-3, 24 hr).

`O=C(C=Cc1ccccc1)Oc1ccc(CO)cc1` [Cinnamic acid 4-(hydroxymethyl)phenyl ester]: in test [1] (setting [4]), the IC50 is 150 ± 12 µM.

On to `CC(C(=O)Oc1ccc(COc2ccc([N+](=O)[O-])cc2[N+](=O)[O-])cc1)c1ccc(-c2ccccc2)c(F)c1` (stereo not drawn) [Compound 1], for which the half-inhibitory concentration (IC50) in test [1] (HT-29, 48 h) is roughly 73 µM. Besides, the colony formation result in test [3] was “abolished colony formation”.

For the compound `CC(=O)Oc1ccccc1C(=O)Nc1ccc(CCl)cc1` [Compound 26, 2-(acetyloxy)benzoic acid 4-(chloromethyl)phenyl amide], the IC50 in test [1] (setting [5]) amounted to 12 ± 3 µM.

As to `CC(=O)Oc1ccccc1C(=O)Nc1ccc(CBr)cc1` [Compound 29, 2-(acetyloxy)benzoic acid 4-(bromomethyl)phenyl amide], the IC50 in test [1] (setting [5]) worked out at 7 ± 2 µM; in test [2] (BXPC-3, 24 h), 18 ± 3 µM.

`O=C(/C=C/c1ccc(O)c(O)c1)Oc1ccc(CO[N+](=O)[O-])cc1` [Compound 41, caffeic acid 4-(nitrooxymethyl)phenyl ester]: in test [1] (setting [5]), the IC50 is roughly 0.5 µM.

As to `O=C(/C=C/c1ccc(O)c(O)c1)Oc1ccc(CCl)cc1` [Compound 47, caffeic acid 4-(chloromethyl)phenyl ester], the IC50 in test [1] (setting [5]) is 0.25 µM.

The term IC50 denotes the concentration that gives 50% inhibition.

The record behind these values is patent publication US7585997B2, “Compounds and compositions for treating dysproliferative diseases, and methods of use thereof” (Chesterford Enterprises Limited, priority 2003, dated 2009).
